The values that follow come from ChEMBL document CHEMBL1128558, “Effect of bridge region variation on antifolate and antitumor activity of classical 5-substituted 2,4-diaminofuro[2,3-d]pyrimidines” (J Med Chem, 1995).

Data set [1] concerns CCRF-CEM. Put plainly: he compound was tested for Growth inhibition of the Human T-lymphoblastic Leukemia cell line CCRF-CEM. The class given is functional, cell-based.
For data set [2], the target named is T1, Dihydrofolate reductase (Homo sapiens, UniProt P00374).
T1 sequence (P00374 whole entry): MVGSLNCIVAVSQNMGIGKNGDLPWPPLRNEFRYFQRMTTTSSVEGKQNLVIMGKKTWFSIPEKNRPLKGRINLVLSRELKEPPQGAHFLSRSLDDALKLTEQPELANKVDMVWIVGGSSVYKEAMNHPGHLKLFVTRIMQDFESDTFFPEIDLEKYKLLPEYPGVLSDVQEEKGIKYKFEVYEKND
The data set is described as follows: Inhibitory concentration against recombinant human DHFR(Dihydro folate reductase).

In data set [3] the target is T2, Thymidylate synthase (Lactobacillus casei, UniProt P00469).
T2 sequence (P00469 whole entry): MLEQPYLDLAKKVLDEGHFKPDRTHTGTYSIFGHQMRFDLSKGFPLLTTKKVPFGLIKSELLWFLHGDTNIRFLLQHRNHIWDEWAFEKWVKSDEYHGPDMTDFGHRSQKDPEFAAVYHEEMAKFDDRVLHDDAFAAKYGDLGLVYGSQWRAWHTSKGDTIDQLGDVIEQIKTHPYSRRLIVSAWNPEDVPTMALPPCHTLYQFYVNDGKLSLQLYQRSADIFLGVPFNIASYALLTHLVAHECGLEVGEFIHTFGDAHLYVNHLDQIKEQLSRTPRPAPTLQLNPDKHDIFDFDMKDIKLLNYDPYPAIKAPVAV
The data set is described as follows: Inhibitory concentration against Lactobacillus casei TS (Thymidylate synthase). More on the design: species or system Lacticaseibacillus casei.

Data set [4] deals with Dihydrofolate reductase (Lactobacillus casei, UniProt P00381).
In data set [5] the target is Thymidylate synthase (Homo sapiens, UniProt P04818). Put plainly: Inhibitory concentration against recombinant human TS (Thymidylate synthase).
Data set [6] in a line: Ratio of Vmax to Km.
A further data set relates to A253 cell line. The data set is described as follows: The compound was tested for Growth inhibition of the human squamous cell carcinoma A253 cells. The class given is functional, cell-based.
For data set [7], the system named is FaDu. Put plainly: Protection by 10 uM LV(leucovorin) against the growth inhibition of FaDu cells induced by the compound. It is filed as functional, Homo sapiens. Details: scale not given: the % may be the effect or the level left.
For data set [8], the system named is FaDu. The data set is described as follows: Protection by 40 uM TdR(thymidine) against the growth inhibition of FaDu cells induced by the compound. It is filed as functional, Homo sapiens. More on the design: scale not given: the % may be the effect or the level left.
Data set [9] concerns FaDu. Put plainly: Protection by 50 uM Hx (Hypoxanthine) against the growth inhibition of FaDu cells induced by the compound. The class given is functional, Homo sapiens. Details: scale not given: the % may be the effect or the level left.
The subject of data set [10] is FaDu. The data set is described as follows: The compound was tested for growth inhibition against FaDu cells. It is filed as functional, Homo sapiens. More on the design: scale not given: the % may be the effect or the level left.
In data set [11] the test system is FaDu. The data set is described as follows: The compound was tested for Growth inhibition of the human squamous cell carcinoma FaDu cells. It is filed as functional, cell-based.
Data set [12] relates to CCRF-CEM. Put plainly: Compound was tested for Growth inhibition of the Human T-lymphoblastic Leukemia cell line CCRF-CEM. It is filed as functional, cell-based.
The subject of data set [13] is CCRF-CEM. The data set is described as follows: The compound was tested for Growth inhibition of Methotrexate-resistant human T-lymphoblastic leukemia cell line CCRF-CEM(sub line R30dm). The class given is functional, cell-based.
Data set [14] concerns FaDu. Put plainly: Protection by combination of 50 uM Hx (Hypoxanthine) + 40 uM TdR(thymidine) against the growth inhibition of FaDu cells induced by the compound. The class given is functional, Homo sapiens. More on the design: scale not given: the % may be the effect or the level left.
Substrate in data set [15]: Nc1nc(N)c2c(CCc3ccc(C(=O)N[C@@H](CCC(=O)O)C(=O)O)cc3)coc2n1
Put plainly: (§1) Substrate activity against CCRF-CEM human leukemia cell Folyl-polyglutamate synthase.

Substrate in data set [16]: Nc1nc(N)c2nc(CNc3ccc(C(=O)N[C@@H](CCC(=O)O)C(=O)O)cc3)cnc2n1
Described as §1.

Substrate in data set [17]: Nc1nc(N)c2c(CCc3ccc(C(=O)N[C@@H](CCC(=O)O)C(=O)O)cc3)coc2n1
The data set is described as follows: (§2) Vmax value for substrate activity against CCRF-CEM human leukemia cell Folyl-polyglutamate synthase. The class given is cell-based.

Substrate in data set [18]: Nc1nc(N)c2c(CNCc3ccc(C(=O)N[C@@H](CCC(=O)O)C(=O)O)cc3)coc2n1
Described as §2. The class given is cell-based.

Substrate in data set [19]: Nc1nc(N)c2nc(CNc3ccc(C(=O)N[C@@H](CCC(=O)O)C(=O)O)cc3)cnc2n1
The data set is described as §2. The class given is cell-based.

Some results are limits rather than exact numbers.

Chain of Dihydrofolate reductase (Lactobacillus casei, UniProt P00381) (P00381 whole entry): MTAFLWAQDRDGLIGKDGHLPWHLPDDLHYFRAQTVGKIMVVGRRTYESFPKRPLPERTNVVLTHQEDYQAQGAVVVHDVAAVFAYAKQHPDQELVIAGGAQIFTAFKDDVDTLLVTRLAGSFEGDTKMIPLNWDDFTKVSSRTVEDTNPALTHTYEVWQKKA
Chain of Thymidylate synthase (Homo sapiens, UniProt P04818) (P04818 whole entry): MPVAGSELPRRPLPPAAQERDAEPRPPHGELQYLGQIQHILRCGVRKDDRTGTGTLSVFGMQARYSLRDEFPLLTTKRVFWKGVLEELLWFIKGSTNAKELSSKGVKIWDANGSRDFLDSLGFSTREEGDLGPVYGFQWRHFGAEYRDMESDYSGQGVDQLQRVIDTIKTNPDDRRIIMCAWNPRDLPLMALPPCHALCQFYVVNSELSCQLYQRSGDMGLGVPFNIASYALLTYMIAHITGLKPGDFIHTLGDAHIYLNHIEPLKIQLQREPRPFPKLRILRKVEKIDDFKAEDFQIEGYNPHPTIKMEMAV

One may read the EC50 as the midpoint of the concentration-response curve. Broadly, the IC50 is the point on the concentration scale where inhibition reaches its midpoint. `Nc1nc(N)c2c(CNCc3ccc(C(=O)N[C@@H](CCC(=O)O)C(=O)O)cc3)coc2n1` displayed an EC50 in the data set with CCRF-CEM [1] of 48000 nM. In addition, the IC50 on Dihydrofolate reductase [2], on Thymidylate synthase [3] and against Dihydrofolate reductase [4] was greater than 200000 nM each time.

Take `Nc1nc(N)c2c(CNc3ccc(C(=O)N[C@@H](CCC(=O)O)C(=O)O)cc3)coc2n1`: the IC50 at Dihydrofolate reductase [2] was 450 nM; at Thymidylate synthase [3] it was greater than 200000 nM; at Thymidylate synthase [5] it was greater than 200000 nM; against Dihydrofolate reductase [4], 560 nM.

Take `Nc1nc(N)c2nc(CNc3ccc(C(=O)N[C@@H](CCC(=O)O)C(=O)O)cc3)cnc2n1`: the Ratio in data set [6] was found to be 0.21.

In the case of `CN(Cc1cnc2nc(N)nc(N)c2n1)c1ccc(C(=O)N[C@@H](CCC(=O)O)C(=O)O)cc1` [METHOTREXATE], the results for the EC50 in the data set with A253 cell line and in the data set on FaDu [11] were 13 nM and 17 nM, respectively. Moreover, the Control stood at 96% in the data set with FaDu [7], 8% with FaDu [8], 6% in the data set on FaDu [9] and 2% in the data set on FaDu [10].

In the case of `Nc1nc(N)c2c(CCc3ccc(C(=O)N[C@@H](CCC(=O)O)C(=O)O)cc3)coc2n1`, the EC50 in the data set on A253 cell line was 540 nM; in the data set with CCRF-CEM [12], 290 nM; in the data set with CCRF-CEM [13], 4250 nM; in the data set with FaDu [11] it was 180 nM. For the same molecule, the Control in the data set with FaDu [7] was found to be 105%; with FaDu [8], 14%; in the data set on FaDu [9], 4%; with FaDu [14] it was 107%; in the data set on FaDu [10], 7%. For the same molecule, the midpoint of inhibition against Thymidylate synthase [3], the IC50, lay at 200000 nM. In addition, the Ratio in data set [6] was 0.07.

B1: Folylpolyglutamate synthase, mitochondrial (Homo sapiens), Q05932 (protein)
chain: MSRARSHLRAALFLAAASARGITTQVAARRGLSAWPVPQEPSMEYQDAVRMLNTLQTNAGYLEQVKRQRGDPQTQLEAMELYLARSGLQVEDLDRLNIIHVTGTKGKGSTCAFTECILRSYGLKTGFFSSPHLVQVRERIRINGQPISPELFTKYFWRLYHRLEETKDGSCVSMPPYFRFLTLMAFHVFLQEKVDLAVVEVGIGGAYDCTNIIRKPVVCGVSSLGIDHTSLLGDTVEKIAWQKGGIFKQGVPAFTVLQPEGPLAVLRDRAQQISCPLYLCPMLEALEEGGPPLTLGLEGEHQRSNAALALQLAHCWLQRQDRHGAGEPKASRPGLLWQLPLAPVFQPTSHMRLGLRNTEWPGRTQVLRRGPLTWYLDGAHTASSAQACVRWFRQALQGRERPSGGPEVRVLLFNATGDRDPAALLKLLQPCQFDYAVFCPNLTEVSSTGNADQQNFTVTLDQVLLRCLEHQQHWNHLDEEQASPDLWSAPSPEPGGSASLLLAPHPPHTCSASSLVFSCISHALQWISQGRDPIFQPPSPPKGLLTHPVAHSGASILREAAAIHVLVTGSLHLVGGVLKLLEPALSQ
As a reminder, the Km is the concentration of substrate that gives half-maximal velocity. For the molecule B1, the Km in data set [15] was determined as 8.5 µM; in data set [16], 4.8 µM. For the same molecule, the figures for the Vmax in [17], in [18] and in data set [19] were 0.65, 0.6 and 1, respectively.
